Measured values taken from patent US5747536A, “Pharmaceutical composition comprising L-carnitine or derivative thereof and trihydroxy or tetrahydroxystilbene” (Sigma-Tau Industrie Farmaceutiche Riunite S.p.A., priority 1995, dated 1998).

Experiments:
[1] = system: platelet-rich plasma (PRP); assay: Platelet aggregation induced by collagen in platelet-rich plasma, photometric (Born); assay type: cell-based, human (volunteers); settings: collagen 2.5 ng/ml, 10 minutes of incubation
Procedure: Platelet-rich plasma (PRP) was obtained from the blood of volunteers by centrifuging the plasma at 145 x g for 5 min at 22° C. The number of platelets was determined using a CA 580A (Delcon) Platelet Counter. The number of platelets was brought down to a fixed value of […] by adding platelet-poor plasma (PPP). PPP was obtained by centrifuging blood at 1600 x g for 10 min at 22° C.
Platelet aggregation was determined photometrically (Born G.V.R., Nature 194, 927, 1962) using an Elvi 840 aggregometer in plastic test tubes under continual stirring at 1000 rpm. The maximum light transmission (100%) was measured with PPP readings, whereas 0% transmission was measured with PRP readings.
The degree of aggregation of PRP induced by the aggregating agent (collagen at 2.5 to 5 ng/ml) was calculated as a percentage of maximum transmission of light obtained with PPP using […] PRP samples.
Aggregation was measured in basal conditions and after 10 minutes of incubation with L-carnitine, resveratrol, grape extract, and combinations of these preparations.

[2] = system: atherosclerotic vascular lesions (aorta); assay: Experimental atherosclerosis induced by atherogenic diet (Malinow method); assay type: in vivo; settings: atherogenic diet for 6 consecutive weeks; male Wistar rats
[3] = system: formation of nitroxides; settings: Fitzpatrick et al. 1993; cited from earlier work
[4] = system: cyclo-oxygeNases; settings: Kimura et al. 1985; cited from earlier work
[5] = system: platelet aggregation induced by collagen or ADP; settings: Fitzpatrick et al. 1993; cited from earlier work
[6] = system: lipo-oxygenases; settings: Kimura et al. 1985; cited from earlier work
[7] = system: production of thromboxanes and leukotrienes; synthesis of eicosanoids; settings: cited from earlier work
[8] = Kimura et al. 1983; cited from earlier work

SMILES	effect on platelet aggregation (in words) [1]	atherosclerotic vascular lesions (in words) [2]	formation of nitroxides with a vasodilatory action (in words) [3]	IC50 ([1]; Homo sapiens, Platelet, 10 min, read-out: ED50, inhibition of the platelet aggregation induced by collagen)	inhibition of cyclo-oxygenases (in words) [4]	inhibition of platelet aggregation induced by collagen or ADP (in words) [5]	inhibition of lipo-oxygenases (in words) [6]	production of thromboxanes and leukotrienes (in words) ([7]; Kimura et al. 1985)	synthesis of eicosanoids (in words) ([7]; background statement)	antihyperoxidative ability (in words) [8]
C[N+](C)(C)C[C@H](O)CC(=O)[O-] [carnitine, L-carnitine]	no significant change	reduced								
Oc1ccc(C=Cc2cc(O)cc(O)c2)cc1 [resveratrol, 3,4',5-trihydroxystilbene]		reduced	promoting the formation of nitroxides with a vasodilatory action	3.5 ng/mL	inhibit	inhibiting platelet aggregation induced by collagen or ADP	inhibit	reduction in the production of thromboxanes and leukotrienes	ability to modulate the synthesis of eicosanoids	antihyperoxidative ability
